ChEMBL document CHEMBL1909046, “DrugMatrix in vitro pharmacology data”

How the values were obtained:
Cannabinoid receptor 1 = Cannabinoid receptor 1 (Homo sapiens, UniProt P21554); type: cell membranes, Membrane; settings: chem-1; further: in other assays of this panel Not Active means under 50% inhibition at 10 µM
Carbonic anhydrase 2 = Carbonic anhydrase 2 (Homo sapiens, UniProt P00918); test: DRUGMATRIX: Carbonic Anhydrase II enzyme inhibition (substrate: 4-Nitrophenyl acetate (4-NPA)); type: tissue-based, Erythrocyte; settings: erythrocyte; Not Active = under 50% inhibition at 10 µM
Leukotriene C4 synthase = biological target: T1, Leukotriene C4 synthase (Cavia porcellus, UniProt A6XA80); test: biochemical; type: tissue-based, Lung;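 further: enzyme inhibition assay of leukotriene C4 synthase, using LTA4 as the substrate; in other assays of this panel Not Active means under 50% inhibition at 10 µM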
T1 sequence (A6XA80 whole entry): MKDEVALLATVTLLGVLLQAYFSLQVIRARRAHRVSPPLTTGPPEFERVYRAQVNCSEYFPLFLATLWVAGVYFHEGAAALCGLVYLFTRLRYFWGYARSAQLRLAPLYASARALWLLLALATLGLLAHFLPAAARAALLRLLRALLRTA

[1] = biological target: Sodium-dependent dopamine transporter (Homo sapiens, UniProt Q01959); test: DRUGMATRIX: Dopamine Transporter radioligand binding (ligand: [125I] RTI-55); type: cell membranes, CHO-K1, Membrane; settings: cho-k1; Not Active = under 50% inhibition at 10 µM
[2] = biological target: T2, Nitric oxide synthase, inducible (Mus musculus, UniProt P29477); set-up: species or system Escherichia coli;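 further: inhibition of iNOS enzyme activity measured with L-arginine as substrate; in other assays of this panel Not Active means under 50% inhibition at 10 µM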
T2 sequence (P29477 whole entry): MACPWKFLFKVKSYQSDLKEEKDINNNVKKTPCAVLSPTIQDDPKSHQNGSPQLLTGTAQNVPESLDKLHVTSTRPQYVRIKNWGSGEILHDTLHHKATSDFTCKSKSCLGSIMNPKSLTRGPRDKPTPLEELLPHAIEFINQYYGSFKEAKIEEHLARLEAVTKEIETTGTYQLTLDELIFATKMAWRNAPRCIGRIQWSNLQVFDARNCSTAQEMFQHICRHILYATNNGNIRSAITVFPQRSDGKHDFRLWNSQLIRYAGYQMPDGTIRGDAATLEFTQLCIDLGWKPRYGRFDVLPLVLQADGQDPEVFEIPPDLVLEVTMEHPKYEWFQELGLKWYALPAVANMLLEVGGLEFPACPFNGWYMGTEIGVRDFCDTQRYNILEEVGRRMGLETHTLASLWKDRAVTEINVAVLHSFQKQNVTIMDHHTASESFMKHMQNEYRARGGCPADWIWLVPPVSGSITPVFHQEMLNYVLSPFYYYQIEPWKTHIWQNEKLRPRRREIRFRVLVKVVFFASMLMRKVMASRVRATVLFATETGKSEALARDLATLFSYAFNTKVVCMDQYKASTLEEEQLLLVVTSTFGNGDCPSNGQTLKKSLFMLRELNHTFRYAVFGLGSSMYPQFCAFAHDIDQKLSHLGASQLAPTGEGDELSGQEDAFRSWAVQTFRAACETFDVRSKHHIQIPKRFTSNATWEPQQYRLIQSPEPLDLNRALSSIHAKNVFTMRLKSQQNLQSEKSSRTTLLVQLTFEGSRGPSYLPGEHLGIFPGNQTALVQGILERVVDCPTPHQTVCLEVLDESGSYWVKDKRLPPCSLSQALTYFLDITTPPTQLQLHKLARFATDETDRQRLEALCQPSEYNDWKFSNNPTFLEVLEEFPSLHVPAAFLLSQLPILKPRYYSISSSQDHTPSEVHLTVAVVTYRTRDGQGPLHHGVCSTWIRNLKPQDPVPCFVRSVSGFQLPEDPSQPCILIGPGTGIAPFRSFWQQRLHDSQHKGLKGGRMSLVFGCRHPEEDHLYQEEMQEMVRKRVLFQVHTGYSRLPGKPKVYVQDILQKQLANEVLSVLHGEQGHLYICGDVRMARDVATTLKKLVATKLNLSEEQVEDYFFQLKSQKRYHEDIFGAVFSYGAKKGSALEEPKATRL

[3] = biological target: Platelet-activating factor receptor (Homo sapiens, UniProt P25105); test: biochemical; type: tissue-based; settings: platelet; further: in other assays of this panel Not Active means under 50% inhibition at 10 µM
[4] = DRUGMATRIX: beta-Lactamase enzyme inhibition (substrate: Nitrocefin); set-up: species or system Bacillus cereus; settings: Not Active = under 50% inhibition at 10 µM
Melanocortin receptor 5 = Melanocortin receptor 5 (Homo sapiens, UniProt P33032); type: cell membranes, HEK293, Membrane; settings: hek293; further: in other assays of this panel Not Active means under 50% inhibition at 10 µM
B2 bradykinin receptor = biological target: T3, B2 bradykinin receptor (Homo sapiens, UniProt P30411); type: cell membranes, Membrane; settings: chem-1; further: in other assays of this panel Not Active means under 50% inhibition at 10 µM
T3 sequence (P30411 whole entry): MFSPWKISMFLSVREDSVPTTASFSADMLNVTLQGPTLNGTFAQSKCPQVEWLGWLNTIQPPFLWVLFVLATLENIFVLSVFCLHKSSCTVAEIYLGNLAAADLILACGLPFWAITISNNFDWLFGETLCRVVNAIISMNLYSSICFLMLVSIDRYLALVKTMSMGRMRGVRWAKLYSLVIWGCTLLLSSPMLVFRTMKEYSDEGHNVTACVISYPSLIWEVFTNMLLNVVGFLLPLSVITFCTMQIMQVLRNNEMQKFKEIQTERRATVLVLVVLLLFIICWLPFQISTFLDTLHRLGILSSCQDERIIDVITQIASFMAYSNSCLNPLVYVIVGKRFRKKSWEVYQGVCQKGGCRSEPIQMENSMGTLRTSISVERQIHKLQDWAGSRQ

[5] = DRUGMATRIX: Sigma2 radioligand binding (ligand: [3H] Ifenprodil); type: cell membranes, Rattus norvegicus, Wistar, Brain, Membrane; settings: Not Active = under 50% inhibition at 10 µM
[6] = DRUGMATRIX: Tumor Necrosis Factor (TNF), Non-Selective radioligand binding (ligand: [125I] TNF-alpha); type: cell membranes, Membrane; settings: u-937; Not Active = under 50% inhibition at 10 µM
Cathepsin G = biological target: T4, Cathepsin G (Homo sapiens, UniProt P08311); type: tissue-based; settings: neutrophil
T4 sequence (P08311 whole entry): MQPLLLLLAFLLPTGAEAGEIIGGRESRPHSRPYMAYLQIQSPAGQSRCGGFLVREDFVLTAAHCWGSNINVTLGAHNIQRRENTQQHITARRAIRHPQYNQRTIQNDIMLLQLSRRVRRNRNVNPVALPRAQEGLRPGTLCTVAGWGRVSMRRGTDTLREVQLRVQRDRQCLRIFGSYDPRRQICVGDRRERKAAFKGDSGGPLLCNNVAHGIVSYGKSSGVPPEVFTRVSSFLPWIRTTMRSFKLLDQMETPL

Chain of Platelet-activating factor receptor (P25105 whole entry): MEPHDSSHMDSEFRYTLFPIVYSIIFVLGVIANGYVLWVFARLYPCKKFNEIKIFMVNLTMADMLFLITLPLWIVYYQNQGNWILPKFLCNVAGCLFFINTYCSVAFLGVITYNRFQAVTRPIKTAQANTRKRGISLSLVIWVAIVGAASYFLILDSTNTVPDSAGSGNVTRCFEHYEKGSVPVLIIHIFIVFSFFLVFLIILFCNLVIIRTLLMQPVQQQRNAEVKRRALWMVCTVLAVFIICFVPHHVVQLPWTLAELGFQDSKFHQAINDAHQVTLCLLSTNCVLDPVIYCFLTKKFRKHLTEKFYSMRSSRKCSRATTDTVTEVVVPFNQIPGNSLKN
Chain of Melanocortin receptor 5 (P33032 whole entry): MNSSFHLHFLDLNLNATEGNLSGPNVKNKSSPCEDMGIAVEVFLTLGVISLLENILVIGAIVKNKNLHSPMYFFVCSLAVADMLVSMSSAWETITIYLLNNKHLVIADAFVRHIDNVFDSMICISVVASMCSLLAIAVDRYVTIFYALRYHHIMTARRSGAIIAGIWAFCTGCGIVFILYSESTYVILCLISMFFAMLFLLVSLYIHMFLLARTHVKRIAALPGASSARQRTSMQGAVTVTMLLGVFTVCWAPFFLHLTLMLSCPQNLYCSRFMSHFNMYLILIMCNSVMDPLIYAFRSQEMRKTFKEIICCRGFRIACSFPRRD
Chain of Cannabinoid receptor 1 (P21554 whole entry): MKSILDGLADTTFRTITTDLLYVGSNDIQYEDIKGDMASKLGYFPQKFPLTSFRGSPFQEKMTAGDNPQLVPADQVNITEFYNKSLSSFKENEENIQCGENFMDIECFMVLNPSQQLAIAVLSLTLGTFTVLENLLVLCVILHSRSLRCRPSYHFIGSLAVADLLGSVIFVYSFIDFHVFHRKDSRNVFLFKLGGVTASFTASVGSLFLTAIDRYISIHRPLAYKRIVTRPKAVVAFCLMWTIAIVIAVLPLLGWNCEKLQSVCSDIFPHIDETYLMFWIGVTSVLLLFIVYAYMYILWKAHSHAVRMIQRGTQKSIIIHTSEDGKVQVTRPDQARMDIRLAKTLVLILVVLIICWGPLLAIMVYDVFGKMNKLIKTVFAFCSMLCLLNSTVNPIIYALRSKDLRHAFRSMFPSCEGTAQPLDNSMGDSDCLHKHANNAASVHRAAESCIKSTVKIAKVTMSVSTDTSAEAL
Chain of Sodium-dependent dopamine transporter (Q01959 whole entry): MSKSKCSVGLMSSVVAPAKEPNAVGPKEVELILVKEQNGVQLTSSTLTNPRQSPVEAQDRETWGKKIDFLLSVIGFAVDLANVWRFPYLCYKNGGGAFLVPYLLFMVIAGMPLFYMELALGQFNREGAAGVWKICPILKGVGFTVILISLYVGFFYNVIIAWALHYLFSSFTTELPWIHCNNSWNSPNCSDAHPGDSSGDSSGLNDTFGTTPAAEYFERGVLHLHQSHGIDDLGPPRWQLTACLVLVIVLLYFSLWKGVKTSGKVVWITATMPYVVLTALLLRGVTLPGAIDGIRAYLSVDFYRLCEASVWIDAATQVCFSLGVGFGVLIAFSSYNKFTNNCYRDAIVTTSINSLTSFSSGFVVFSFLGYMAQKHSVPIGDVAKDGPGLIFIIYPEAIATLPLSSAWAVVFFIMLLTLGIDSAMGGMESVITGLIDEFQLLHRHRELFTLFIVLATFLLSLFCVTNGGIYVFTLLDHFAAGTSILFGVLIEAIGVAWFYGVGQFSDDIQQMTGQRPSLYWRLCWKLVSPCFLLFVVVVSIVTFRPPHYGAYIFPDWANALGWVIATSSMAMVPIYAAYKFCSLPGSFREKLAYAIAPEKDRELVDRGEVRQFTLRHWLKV

NCC(=O)O [GLYCINE]
Not Active: IC50 (Cannabinoid receptor 1) | IC50 (Carbonic anhydrase 2) | IC50 (Leukotriene C4 synthase) | IC50 [1] | IC50 [2] | IC50 [3] | IC50 [4] | Ki [4] | IC50 (Melanocortin receptor 5) | IC50 (B2 bradykinin receptor) | IC50 [5] | Ki [5] | IC50 [6] | Ki [6] | IC50 (Cathepsin G)

CC1(C)S[C@@H]2[C@H](NC(=O)[C@H](NC(=O)N3CCNC3=O)c3ccccc3)C(=O)N2[C@H]1C(=O)O [AZLOCILLIN]
Not Active: IC50 (Cannabinoid receptor 1) | IC50 (Carbonic anhydrase 2) | IC50 (Leukotriene C4 synthase) | IC50 [1] | IC50 [2] | IC50 [3] | IC50 [4] | Ki [4] | IC50 (Melanocortin receptor 5) | IC50 (B2 bradykinin receptor) | IC50 [5] | Ki [5] | IC50 [6] | Ki [6] | IC50 (Cathepsin G)

OXALIPLATIN
Not Active: IC50 (Cannabinoid receptor 1) | Ki (Cannabinoid receptor 1) | IC50 (Carbonic anhydrase 2) | Ki (Carbonic anhydrase 2) | IC50 (Leukotriene C4 synthase) | Ki (Leukotriene C4 synthase) | IC50 [1] | Ki [1] | IC50 [2] | Ki [2] | IC50 [3] | Ki [3] | IC50 [4] | Ki [4] | IC50 (Melanocortin receptor 5) | Ki (Melanocortin receptor 5) | IC50 (B2 bradykinin receptor) | Ki (B2 bradykinin receptor) | IC50 [5] | Ki [5] | IC50 [6] | Ki [6] | IC50 (Cathepsin G) | Ki (Cathepsin G)

CN(C)CCCC1(c2ccc(F)cc2)OCc2cc(C#N)ccc21 (centres undefined) [CITALOPRAM]
Not Active: IC50 (Cannabinoid receptor 1) | IC50 (Carbonic anhydrase 2) | IC50 (Leukotriene C4 synthase) | IC50 [1] | IC50 [2] | IC50 [3] | IC50 [4] | Ki [4] | IC50 (Melanocortin receptor 5) | IC50 (B2 bradykinin receptor) | IC50 [5] | Ki [5] | IC50 [6] | Ki [6] | IC50 (Cathepsin G)

CCc1cccc2c3c([nH]c12)C(CC)(CC(=O)O)OCC3 (centres undefined) [ETODOLAC]
Not Active: IC50 (Cannabinoid receptor 1) | IC50 (Carbonic anhydrase 2) | IC50 (Leukotriene C4 synthase) | IC50 [1] | IC50 [2] | IC50 [3] | IC50 [4] | Ki [4] | IC50 (Melanocortin receptor 5) | IC50 (B2 bradykinin receptor) | IC50 [5] | Ki [5] | IC50 [6] | Ki [6] | IC50 (Cathepsin G)

Cc1[nH]cnc1CN1CCc2c(c3ccccc3n2C)C1=O [ALOSETRON]
Not Active: IC50 (Cannabinoid receptor 1) | IC50 (Carbonic anhydrase 2) | IC50 (Leukotriene C4 synthase) | IC50 [1] | IC50 [2] | IC50 [3] | IC50 [4] | Ki [4] | IC50 (Melanocortin receptor 5) | IC50 (B2 bradykinin receptor) | IC50 [5] | Ki [5] | IC50 [6] | Ki [6] | IC50 (Cathepsin G)

C/C=C1\[C@H]2C=C(C)C[C@]1(N)c1ccc(=O)[nH]c1C2 [HUPERZINE A]
Not Active: IC50 (Cannabinoid receptor 1) | IC50 (Carbonic anhydrase 2) | IC50 (Leukotriene C4 synthase) | IC50 [1] | IC50 [2] | IC50 [3] | IC50 [4] | Ki [4] | IC50 (Melanocortin receptor 5) | IC50 (B2 bradykinin receptor) | IC50 [5] | Ki [5] | IC50 [6] | Ki [6] | IC50 (Cathepsin G)

O=c1[nH]cc(F)c(=O)[nH]1 [FLUOROURACIL]
Not Active: IC50 (Cannabinoid receptor 1) | IC50 (Carbonic anhydrase 2) | IC50 (Leukotriene C4 synthase) | IC50 [1] | IC50 [2] | IC50 [3] | IC50 [4] | Ki [4] | IC50 (Melanocortin receptor 5) | IC50 (B2 bradykinin receptor) | IC50 [5] | Ki [5] | IC50 [6] | Ki [6] | IC50 (Cathepsin G)

O=C1OC2(c3ccc(O)cc3Oc3cc(O)ccc32)c2ccccc21 [FLUORESCEIN]
Not Active: IC50 (Cannabinoid receptor 1) | IC50 (Carbonic anhydrase 2) | IC50 (Leukotriene C4 synthase) | IC50 [1] | IC50 [2] | IC50 [3] | IC50 [4] | Ki [4] | IC50 (Melanocortin receptor 5) | IC50 (B2 bradykinin receptor) | IC50 [5] | Ki [5] | IC50 [6] | Ki [6] | IC50 (Cathepsin G)

COC1=CC(=O)C[C@@H](C)[C@]12Oc1c(Cl)c(OC)cc(OC)c1C2=O [GRISEOFULVIN]
Not Active: IC50 (Cannabinoid receptor 1) | IC50 (Carbonic anhydrase 2) | IC50 (Leukotriene C4 synthase) | IC50 [1] | IC50 [2] | IC50 [3] | IC50 [4] | Ki [4] | IC50 (Melanocortin receptor 5) | IC50 (B2 bradykinin receptor) | IC50 [5] | Ki [5] | IC50 [6] | Ki [6] | IC50 (Cathepsin G)
